# Where two headings read alike, the source gives them in different places.
# Tests used:
# blood pressure = test: Blood pressure-reducing action (Test Example 2); type: in vivo, dog; conditions: dogs, i.v., dissolved in dimethylsulfoxide; for ED20: Canis lupus familiaris, iv, read-out: ED20, dose effective to reduce the blood pressure by 20%
# Experimental: In order to evaluate the blood pressure-reducing action of the present compounds, each of the compounds was dissolved in dimethylsulfoxide and administered intravenously to dogs. After administration, a dose of the compound effective to reduce the blood pressure by 20% (ED20 :mg/Kg) was measured.
# [1] = Acute toxicity test (Test Example 4); conditions: in vivo; oral administration to mouse, suspended in carboxymethyl cellulose; read-out: LD50, 50% lethal dose
# Experimental: Each of the present compounds suspended in a carboxymethyl cellulose was administered orally to a mouse and a 50% lethal dose (LD50) was measured. There was not observed any dead mouse even with the administration as high as 2,000 mg/Kg.
# carotid blood-flow = test: Blood-flow increasing action (Test Example 3), carotid; type: in vivo, dog; conditions: Canis lupus familiaris, iv; dogs, i.v., dissolved in dimethylsulfoxide; read-out: Carotid blood-flow increasing action (ED30), dose required to increase the blood-flow in the carotid by 30%
# Experimental: In order to evaluate the blood-flow increasing action of the present compounds, each of the compounds was dissolved in dimethylsulfoxide and administered intravenously to dogs. After administration, a dose required to increase the blood-flow in the carotid by 30% was determined.
# [2] = test system: platelet plasma (platelet-rich plasma of rabbit); test: Platelet aggregation inhibitory action (Test Example 1), rabbit platelet plasma, aggregation by ADP, PAF, AA or collagen; type: cell-based
# Experimental: For evaluating the platelet aggregation inhibitory action of the present compounds, platelet plasma containing 5×10^5 of platelets in 1 μl of plasma was prepared by appropriately mixing platelet-rich plasma (PRP) of rabbit with platelet-poor plasma (PPP). By using the platelet plasma, the present compounds were measured on 50% inhibitory efficacy (IC 50) against each of platelet aggregation accelerators, 10 μM of adenosine diphosphate (ADP), 0.01 μg/ml of platelet activation factor (PAF), 300 μM of arachidonic acid (AA) and 30 μg/ml of collagen.
# [3] = Oryctolagus cuniculus, 0.01 μg/ml platelet activation factor (PAF), read-out: 50% inhibitory efficacy (IC 50), PAF, Coagulant (ID50)
# [4] = Oryctolagus cuniculus, 10 μM adenosine diphosphate (ADP), read-out: 50% inhibitory efficacy (IC 50), ADP, Coagulant (ID50)
# [5] = Oryctolagus cuniculus, 30 μg/ml collagen, read-out: 50% inhibitory efficacy (IC 50), Collagen, Coagulant (ID50)
# [6] = Oryctolagus cuniculus, 300 μM arachidonic acid (AA), read-out: 50% inhibitory efficacy (IC 50), AA, Coagulant (ID50)
Compound,ED20 (blood pressure),LD50 [1],ED30 (carotid blood-flow),"IC50 [2, 3]","IC50 [2, 4]","IC50 [2, 5]","IC50 [2, 6]","ED20, dose effective to reduce the blood pressure by 20% (blood pressure)","IC50 ([2]; 0.01 μg/ml platelet activation factor (PAF), read-out: 50% inhibitory efficacy (IC 50), PAF, Coagulant (ID50))","IC50 ([2]; 10 μM adenosine diphosphate (ADP), read-out: 50% inhibitory efficacy (IC 50), ADP, Coagulant (ID50))","IC50 ([2]; 30 μg/ml collagen, read-out: 50% inhibitory efficacy (IC 50), Collagen, Coagulant (ID50))","IC50 ([2]; 300 μM arachidonic acid (AA), read-out: 50% inhibitory efficacy (IC 50), AA, Coagulant (ID50))"
"O=c1ccc2c3c(ccc2[nH]1)OCCC3 [Preparation Example 5, 1,2,3,3-tetrahydro-3H-pyrano-[3,2-f]quinoline-8(7H)-one]",1.6 mg/kg,≥ 2000 mg/kg,0.0094 mg/kg,8 µM,3 µM,6 µM,4 µM,,,,,
"O=c1ccc2c3c(ccc2[nH]1)OCC(O)C3 (stereo not shown) [Preparation Example 6, 2-hydroxy-1,2,3,3-tetrahydro-3H-pyrano [3,2-f]quinoline-8(7H)-one]",1.5 mg/kg,≥ 2000 mg/kg,0.19 mg/kg,47 µM,30 µM,25 µM,21 µM,,,,,
"CC1(C)Oc2ccc3[nH]c(=O)ccc3c2CC1O (stereo not shown) [Preparation Example 7, 3,3-dimethyl-1,2-hydroxy-1,2-dihydro-3 H-pyrano[3,2-f]quinoline-8(7H)-one]",1.6 mg/kg,,,21 µM,20 µM,13 µM,13 µM,,,,,
"3,3-dimethyl-1-hydroxy-3H-pyrano [3,2-f]quinoline-8(7H)-one [Preparation Example 9]",,,,,,,,1.5 mg/kg,45 µM,30 µM,30 µM,21 µM
"CC1CCc2c(ccc3[nH]c(=O)ccc23)O1 (stereo not shown) [Preparation Example 1, 3-methyl-1,2-dihydro-3H-pyrano[3,2-f]quinoline-8(7H)-one]",1.2 mg/kg,,,8 µM,5 µM,5 µM,3 µM,,,,,
"O=c1ccc2c3c(ccc2[nH]1)OCCC3O (stereo not shown) [Preparation Example 8, 1-hydroxy-1,2,3,3-tetrahydro-3H-pyrano[3,2-f]quinoline-8(7H)-one]",1.8 mg/kg,,,25 µM,20 µM,18 µM,18 µM,,,,,
"O=c1ccc2c3c(ccc2[nH]1)OCC=C3 [Preparation Example 4, 3,3-dihydro-3H-pyrano[3,2-f]quinoline-8(7H)-one]",0.5 mg/kg,,0.066 mg/kg,25 µM,30 µM,20 µM,18 µM,,,,,
"CC1(C)CCc2c(ccc3c2CCC(=O)N3)O1 [Preparation Example 3, 3,3-dimethyl-1,2,9,10-tetrahydro-3H-pyrano [3,2-f]quinoline-8(7H)-one]",0.4 mg/kg,,0.03 mg/kg,22 µM,20 µM,21 µM,16 µM,,,,,
"CC1(C)CCc2c(ccc3[nH]c(=O)ccc23)O1 [Preparation Example 2, 3,3-dimethyl-1,2-dihydro-3H-pyrano[3,2-f]quinoline-8(7H)-one]",1.2 mg/kg,,0.009 mg/kg,6 µM,5 µM,7 µM,5 µM,,,,,

# Source: patent US5093339A, “Pyrano[f]quinoline derivatives and pharmaceutical compositions containing the same” (Kodama Kabushiki Kaisha, priority 1988, dated 1992)
